Laboratory results: PMC9572541, “Design, Synthesis and Biological Evaluation of Novel and Potent Protein Arginine Methyltransferases 5 Inhibitors for Cancer Therapy” (Molecules, 2022)

How the values were obtained:
[1] = target: T1, PRMT5 (Homo sapiens, UniProt O14744); experiment: PRMT5 enzymatic activity inhibition assay (radioactive methylation, 3H-SAM to H4R3 peptide); format: biochemical; conditions: for inhibition at 0.1 µM: 100 nM compound, read-out: Inhibition Rate% @100 nM
T1 construct: The final concentrations of PRMT5 enzyme: 2.5 nm/L
Experimental: The PRMT5 enzymatic activity assay was conducted by Chempartner Life science. The final concentrations of PRMT5 enzyme: 2.5 nm/L; ^3H-SAM: 0.3 μM/L; histone peptide (H4R3S1ac): 0.3 μM/L. The protocol of radioactive methylation assay was as follows: (1) Prepare 1× assay buffer (modified Tris Buffer). (2) Transfer compounds to assay plate using Echo in 100% DMSO. DMSO’s final fraction is 1%. (3) Prepare enzyme and ^3H-SAM Mix solution in 1× assay buffer. (4) Prepare substrate (peptide sequence Ac-[…]-K(Biotin)) solution in 1× assay buffer. (5) Transfer 15 μL of enzyme and ^3H-SAM solution to assay plate. (6) Incubate at room temperature for 60 min. (7) Add 10 μL of substrate solution to each well to start the reaction, and for low control transfer 10 μL of 1× assay buffer. (8) Incubate at room temperature for 120 min. (9) Add cold SAM in 1× assay buffer to make the stop mix. (10) Stop reaction with addition of 5 µL per well of stop solution. (11) Transfer 25 µL of volume per well to Flash plate from assay plate. (12) Incubate for 1 h minimum at room temperature.
(13) Read plate on Micro beta. (14) Data process—get the data in Excel to obtain inhibition values using Equation (1).Inhibitory rate% = (Max-Signal)/ (Max-Min) × 100(1)
Fit the data in XL-Fit to obtain IC50 values using Equation (2): Y = Bottom + (Top-Bottom)/(1 + (IC50/X) […]) Y is% inhibition and X is compound concentration(2)

[2] = tested on: MV-4-11 cells; experiment: Anti-proliferation CellTiter-Glo assay, MV-4-11; format: cell-based; conditions: Homo sapiens, MV4-11, 12th day
Description: (§1) MV-4-11 and MDA-MB-468 cell lines were used to evaluate the anti-proliferative activities of the selected target compounds (CellTiter-Glo assay), and AML-12 hepatocytes were selected to evaluate the toxicity of the compounds.
(§2) MV-4-11 and MDA-MB-468 cell line were derived from Cell Resources Center of Shanghai Academy of life sciences (Shanghai, China). AML-12 cell line was brough from Nanjing Lixing Biotechnology Co. Ltd. (Nanjing, China). MDA-MB-468 cell line was maintained in Dulbecco’s Modified Eagle Medium (DMEM, KeyGEN Bio) that contained 10% FBS (Biochanel, China), MV-4-11 cell line was maintained in Iscove’s Modified Dulbecco Medium containing; 10% FBS (Biochannel, China), AML-12 cell line was maintained in DMEM/F-12 (1:1) (KeyGEN, China; 1% ITS Liquid Media Supplement (Sigma, America), dexamethasone 40 ng/mL (Sigma, USA) and 10% FBS (Biochannel, China). All cells were grown in a humidified incubator containing 5% carbon dioxide at 37 ℃. All compounds were dispersed in dimethyl sulfoxide (Sigma), the concentration of the reserve solution was 10 mmol/L and the solution was stored in a refrigerator at −20 ℃. SDMA (# 13222S), β- Tubulin (#2146S) and horseradish peroxidase (HRP)-linked secondary antibodies anti-rabbit or anti-mouse IgG were purchased from Cell Signaling Technology (CST), and the anti-PRMT5 (ab109451) antibody was purchased from ABCAM.
(§3) The antiproliferative activities of compounds in vitro were measured by CellTiter-Glo (CTG) assay (Promega, America). In linear/log-phase growth, cultured MV-4-11 cells were split to with seeding density of 2 × 10^5 cells/mL in 1–20 mL of media, depending on the yield required at the end of the growth period. At the conclusion of each treatment period, cells were harvested by centrifugation (4 min, 1000 rpm), and cell pellets were rinsed twice with PBS before being research further processing. Afterwards, cells were plated in 96-well plates with a density of 500 cells/well in […] media. After six hours incubation, compounds treatment was performed. Half of the culture medium was moved and re-plated with fresh media with fresh compound after 6 days. On the 12th day, Cell Titer-Glo Luminescent Cell Viability assays (Promega, USA) were used to determine the viable cell number, and luminescence was recorded using the Envision Multilabel Plate Readers (PerkinElmer). The concentration dependence curves were determined at each time point using GraphPad Prism 8.0 software.

[3] = tested on: MDA-MB-468 cells; experiment: Anti-proliferation CellTiter-Glo assay, MDA-MB-468; format: cell-based; conditions: Homo sapiens
Description: as §1, §2, §3

[4] = tested on: AML-12 hepatocytes; experiment: Toxicity on normal AML-12 hepatocytes; format: cell-based; conditions: Mus musculus, AML12; for inhibition at 10 µM: read-out: AML-12 Inhibition Rate% @10 μM; for inhibition at 20 µM: read-out: AML-12 Inhibition Rate% @20 μM
Description: as §1
as §2, with “ABCAM. […]” for “ABCAM.”

[5] = tested on: MV-4-11 xenograft; experiment: MV-4-11 xenograft mouse model; format: in vivo, BALB/c nude mice; conditions: 10 mg/kg, twice daily (BID), 28 days
Experimental: Based on the excellent enzymatic and anti-proliferative activities of compound 20 in vitro, we then evaluated antitumor activities in vivo in an MV-4-11 xenograft mouse model.
Male BALB/c nude mice (6–8 weeks old) were purchased from Hangzhou Medical College. All animals were housed in a specific pathogen-free facility. MV-4-11 cells (5 × 10^6) suspended in 0.2 mL of PBS were inoculated subcutaneously on the right flank of each BALB/c nude mouse. Mice were divided randomly (5 mice for each group) into two treatment groups and a control group when the size of the tumors reached 150 mm^3. […] The tumor volume and body weight were measured every 2 days. The tumor volume was determined with Vernier calipers and calculated as follows: tumor volume = a × b^2/2, where a and b stand for the longest and shortest diameters measured by the vernier caliper, respectively. All animal experiments have been approved by Pharmaceutical Experiment Center of China Pharmaceutical University.
(A) The resulting tumors excised from the animals after treatment. […] (C) The nude mouse body weight was measured every 2 days. (D) The tumor volumes of the nude mice were measured and calculated once every 2 days.

[6] = no reference given; cited from earlier work

T1 sequence (O14744 whole entry): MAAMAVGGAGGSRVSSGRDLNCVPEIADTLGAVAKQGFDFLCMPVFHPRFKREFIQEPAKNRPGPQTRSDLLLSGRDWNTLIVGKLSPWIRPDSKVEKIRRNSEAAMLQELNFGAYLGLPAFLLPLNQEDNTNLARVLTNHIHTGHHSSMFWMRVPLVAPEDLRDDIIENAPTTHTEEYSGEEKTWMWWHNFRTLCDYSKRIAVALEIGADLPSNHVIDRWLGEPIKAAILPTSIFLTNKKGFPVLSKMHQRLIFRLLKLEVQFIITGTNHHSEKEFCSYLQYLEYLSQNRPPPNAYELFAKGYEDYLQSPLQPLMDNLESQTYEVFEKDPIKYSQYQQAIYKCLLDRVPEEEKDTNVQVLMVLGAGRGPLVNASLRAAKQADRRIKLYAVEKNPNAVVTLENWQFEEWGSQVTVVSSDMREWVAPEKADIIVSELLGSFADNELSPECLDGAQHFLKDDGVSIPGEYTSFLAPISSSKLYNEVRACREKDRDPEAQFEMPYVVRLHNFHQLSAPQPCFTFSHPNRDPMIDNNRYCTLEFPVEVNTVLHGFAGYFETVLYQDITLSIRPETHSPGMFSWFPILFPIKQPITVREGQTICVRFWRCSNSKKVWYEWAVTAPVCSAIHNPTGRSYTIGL
T1 sequence (Q9BQA1 whole entry partner): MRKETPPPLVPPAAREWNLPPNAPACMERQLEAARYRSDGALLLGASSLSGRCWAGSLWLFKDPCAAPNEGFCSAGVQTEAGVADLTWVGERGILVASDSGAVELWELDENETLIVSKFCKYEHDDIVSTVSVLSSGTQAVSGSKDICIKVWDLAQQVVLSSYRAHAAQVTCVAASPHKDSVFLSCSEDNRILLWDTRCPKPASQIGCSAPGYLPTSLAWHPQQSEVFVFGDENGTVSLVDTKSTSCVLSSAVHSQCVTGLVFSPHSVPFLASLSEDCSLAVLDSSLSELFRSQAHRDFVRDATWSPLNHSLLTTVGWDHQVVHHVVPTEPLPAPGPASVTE

In the case of `O=C(NC[C@H](O)CN1CCc2ccccc2C1)c1ccc2[nH]c3ccccc3c2c1` [Compound 1, (S)-N-(3-(3,4-dihydroisoquinolin-2(1H)-yl)-2-hydroxypropyl)-9H-carbazole-3-carboxamide], the IC50 [1] is reported as 13 ± 8.9 nM, the inhibition at 0.1 µM [1] is reported as 73 ± 0.7% and the GI50 [2] is reported as 271 ± 152 nM. For the same compound, the GI50 [3] was 552 ± 33 nM, the inhibition at 10 µM [4] was 16.7 ± 10.4% and the inhibition at 20 µM [4] was 97.5 ± 0.1%.

For `O=C(NC[C@H](O)CN1CCc2ccccc2C1)c1ccc2[nH]c3c(c2c1)CCCC3` [Compound 7, (S)-N-(3-(3,4-dihydroisoquinolin-2(1H)-yl)-2-hydroxypropyl)-2,3,4,9-tetrahydro-1H-carbazole-6-carboxamide], the IC50 [1] was 18.6 ± 0.9 nM, the inhibition at 0.1 µM [1] was 75 ± 0.7% and the GI50 [2] was 54.1 ± 20.5 nM. The GI50 [3] was > 250 nM, the inhibition at 10 µM [4] was 46.4 ± 3.7% and the inhibition at 20 µM [4] was 98.4 ± 0.7%.

`O=C(NC[C@H](O)CN1CCc2ccccc2C1)c1ccc2[nH]c3c(c2c1)CCCCCC3` [Compound 10, (S)-N-(3-(3,4-dihydroisoquinolin-2(1H)-yl)-2-hydroxypropyl)-6,7,8,9,10,11-hexahydro-5H-cycloocta[b]indole-2-carboxamide] showed an inhibition at 0.1 µM [1] of 71 ± 1.3%, a GI50 [2] of 42.4 ± 2.6 nM and a GI50 [3] of 126 ± 70.9 nM. It also gave an inhibition at 10 µM [4] of 97.9 ± 1.2% and an inhibition at 20 µM [4] of 100.7 ± 0.1%.

With `Cn1c2c(c3cc(C(=O)NC[C@H](O)CN4CCc5ccccc5C4)ccc31)CCCC2` [Compound 13, (S)-N-(3-(3,4-dihydroisoquinolin-2(1H)-yl)-2-hydroxypropyl)-9-methyl-2,3,4,9-tetrahydro-1H-carbazole-6-carboxamide] the IC50 [1] was 10 ± 4.4 nM, the inhibition at 0.1 µM [1] was 75 ± 0.7% and the GI50 [2] was 163.1 ± 0.3 nM. The GI50 [3] was 147 ± 2.5 nM, the inhibition at 10 µM [4] was 16.3 ± 3.4% and the inhibition at 20 µM [4] was 21.2 ± 2%.

For `CCn1c2c(c3cc(C(=O)NC[C@H](O)CN4CCc5ccccc5C4)ccc31)CCCC2` [Compound 14, (S)-N-(3-(3,4-dihydroisoquinolin-2(1H)-yl)-2-hydroxypropyl)-9-ethyl-2,3,4,9-tetrahydro-1H-carbazole-6-carboxamide], the IC50 [1] was 8.8 ± 0.4 nM, the inhibition at 0.1 µM [1] was 81 ± 3.2% and the GI50 [2] was 29.7 ± 12.8 nM. It also gave a GI50 [3] of 286 ± 5.9 nM, an inhibition at 10 µM [4] of -67 ± 11.3% and an inhibition at 20 µM [4] of 17.7 ± 3.5%.

`CCCn1c2c(c3cc(C(=O)NC[C@H](O)CN4CCc5ccccc5C4)ccc31)CCCC2` [Compound 15] showed an IC50 [1] of 4.2 ± 2.1 nM, an inhibition at 0.1 µM [1] of 79 ± 4% and a GI50 [2] of 39.5 ± 1.9 nM. For the same compound, the GI50 [3] was 24.9 ± 20.2 nM, the inhibition at 10 µM [4] was -21.5 ± 2% and the inhibition at 20 µM [4] was 77.3 ± 1.6%.

Compound `O=C(NC[C@H](O)CN1CCc2ccccc2C1)c1ccc2c(c1)c1c(n2CC2CCC2)CCCC1` [Compound 19, (S)-9-(cyclobutylmethyl)-N-(3-(3,4-dihydroisoquinolin-2(1H)-yl)-2-hydroxypropyl)-2,3,4,9-tetrahydro-1H-carbazole-6-carboxamide] has an IC50 [1] of 7.5 ± 0.3 nM, an inhibition at 0.1 µM [1] of 80 ± 1% and a GI50 [2] of 16 ± 2.3 nM. For the same compound, the GI50 [3] was 99.1 ± 8.3 nM, the inhibition at 10 µM [4] was 32.9 ± 5.4% and the inhibition at 20 µM [4] was 100.2 ± 0.9%.

In the case of `CC(=O)N1CCC(Nc2cc(C(=O)NC[C@H](O)CN3CCc4ccccc4C3)ncn2)CC1` [GSK-3326595, reference compound], the GI50 [2] is reported as 9.3 ± 2.8 nM, the GI50 [3] is reported as 37.3 ± 3 nM and the inhibition at 10 µM [4] is reported as 22.9 ± 3%. For the same compound, the inhibition at 20 µM [4] was 26.5 ± 2%, the TGI [5] was 39.3% and the “adverse events in clinical studies” value [6] was “grade 3 or 4 adverse events”.
